The values that follow come from article PMC9706574, “A Versatile and Sustainable Multicomponent Platform for the Synthesis of Protein Degraders: Proof-of-Concept Application to BRD4-Degrading PROTACs” (Journal of Medicinal Chemistry, 2022).

≈ marks a conversion by molar mass, not a printed value. Marks after values point to notes of the source that are not given here.

Data set [1] concerns the target T1, BRD4 (Homo sapiens, UniProt O60885).
T1 construct: endogenous in cells; host or cells: MDA-MB-231
In words: BRD4 degradation by Western blot analysis in MDA-MB-231 cells. It is filed as cell-based. Particulars: for dose-response of BRD4 degradation (in words): 100 nM to 10 μM; for effect of cotreatment with proteasome inhibitor bortezomib on BRD4 degradation: 1 μM compound + 5 nM bortezomib; for BRD4 degradation in time-course experiments (in words): 1 μM, 4 up to 24 h; for DC50: 8 h treatment, from Western blot densitometry. The procedure:
In Vitro Biological Validation of PROTACs and Preliminary Assessment of Thermodynamic Aqueous Solubility and Metabolic Stability of Selected BRD4-Degrading PROTACs. With the aim of proving the utility of our platform and the compatibility of the substructures accessible by the MCR strategy with a proximity-based degradation, the ability of our PROTAC candidates to effectively act as BRD4 degraders was tested in the human breast cancer cell line MDA-MB-231, known to express detectable levels of this protein.
The human breast adenocarcinoma MDA-MB-231 cell line was cultured in DMEM (Sigma-Aldrich) supplemented with 10% fetal bovine serum (FBS), 1% glutamine, and 1% penicillin/streptomycin. For Western blot analysis, […] cells/well were plated into 12-well plates containing DMEM complete growth medium, to be treated with the synthesized compounds, at the indicated concentrations, for different time lengths. After treatments, cells were scraped and lysed to obtain protein extract using RIPA lysis buffer supplemented with protease (PIC, Merck-Millipore) and phosphatase inhibitors (NaF 1 M, Na3VO4 1 M, PMSF […], Sigma-Aldrich). Cells lysates were centrifuged at 13 000 rpm for 10 min at 4 °C to remove membranes and insoluble fractions. Protein quantification of the supernatant fraction was performed with Braford protein assay (Sigma-Aldrich). […] aliquots of protein extracts were used for 12% SDS-PAGE. After transfer into nitrocellulose membranes, BRD4 and tubulin protein levels were evaluated by immunoblotting using a rabbit polyclonal anti-BRD4 (Bethyl Laboratories) and a mouse monoclonal α-tubulin (Sigma-Aldrich) IgG as primary antibodies and an antirabbit or antimouse HRP-conjugated secondary antibody (Bio-Rad Laboratories). Protein levels were detected by chemiluminescent conversion of the HRP substrate LumiGLO (Thermo Fisher Scientific) using the ChemiDoc imaging system (Bio-Rad). Band densitometry was assessed, normalized to α-tubulin immunoreactive bands, and reported as percentage of the 0.3% DMSO control lane.

The nature of data set [2]: Thermodynamic aqueous solubility. It is filed as physicochemical. How it is done:
Saturated solutions were prepared by dissolving the tested compounds in 0.1 M phosphate-buffered saline (pH = 7.4) or 0.01 N HCl solutions and sonicated for 30 s. After equilibration on an orbital shaker at 25 °C for 2 h, the solutions were centrifuged at 13 000 rpm for 5 min and filtered through a 0.2 μm regenerated cellulose (RC) syringe filter. A 400 μL aliquot of each filtrate was diluted with 100 μL of acetonitrile and analyzed by LC-UV. When the measured peak area was out of the calibration range (5–100 μM), the sample was further diluted in water–acetonitrile 1:1 mixture.

A short description of data set [3]: Metabolic stability in mouse liver microsomes (MLM). It is filed as in vitro ADME. On the technique in general: Liver microsomes are vesicles of endoplasmic reticulum, rich in cytochrome P450 enzymes.
Procedure: To this aim, we evaluated the metabolic stability of the five selected PROTACs in mouse liver microsomes (MLM).
Mouse liver microsomes (MLM) (pooled male mouse CD-1, protein concentration: 20 mg/mL) were purchased from Corning B.V. Life Sciences (Amsterdam, The Netherlands). The standard incubation mixture (250 μL final volume) was carried out in a 50 mM Tris (tris[hydroxymethyl]aminomethane) buffer (pH 7.4) containing 150 mM KCl, 1.5 mM, 3.3 mM MgCl2, 1.3 mM NADPNa2, 3.3 mM glucose 6-phosphate, 0.4 units/mL glucose 6-phosphate dehydrogenase, acetonitrile as cosolvent (1% of total volume), and the substrate (50 μM). After pre-equilibration of the mixture, an appropriate volume of MLM suspension was added to give a final protein concentration of 1.0 mg/mL. The mixture was shaken for 60 min at 37 °C. Control incubations were carried out without the presence of an NADPH-regenerating system or microsomes. Each incubation was stopped by the addition of 250 μL of ice-cold acetonitrile, vortexed, and centrifuged at 13 000 rpm for 5 min. The supernatants were analyzed by LC-UV.
On the set-up of data set [4]: method as in PMID 28378579. As to conditions: cited from earlier work.
Details of data set [5]: method as in PMID 33026811. As to conditions: physiological pH, in 3 h; cited from earlier work.
The mark [6] stands for this setting: 0.01 N HCl solution, HCl 0.01 N, pH 2.0, 25 °C.
Setting [7] is: phosphate-buffered saline, PBS 0.1 M, pH 7.4, 25 °C.

For orientation: melting point means the temperature, or range, at which the solid turns liquid. As a reminder, the DC50 is the midpoint of the concentration-degradation curve. The solubility (thermodynamic) is solubility found after equilibrating the solid with the medium. On to `Cc1sc2c(c1C)C(c1ccc(Cl)cc1)=N[C@@H](CC(=O)NCC(=O)NCCCCCOc1cccc3c1C(=O)N(C1CCC(=O)NC1=O)C3=O)c1nnc(C)n1-2` (stereo partly drawn) [Compound 29, 2-((S)-4-(4-Chlorophenyl)-2,3,9-trimethyl-6H-thieno[3,2-f][1,2,4]triazolo[4,3-a][1,4]diazepin-6-yl)-N-(2-((5-((2-(2,6-dioxopiperidin-3-yl)-1,3-dioxoisoindolin-4-yl)oxy)pentyl)amino)-2-oxoethyl)acetamide], for which the melting point was 223.4 to 225.1 °C (dec.). Further, the “dose-response of BRD4 degradation (in words)” value in data set [1] (8 h, MDA-MB-231 cells) was “degradation was observed only at 1 and 3 μM concentrations”. For the same compound, the “effect of cotreatment with proteasome inhibitor bortezomib on BRD4 degradation” value in data set [1] (8 h) is reported as “abolish BRD4 degradation”. In addition, in data set [1] (MDA-MB-231 cells), the “BRD4 degradation in time-course experiments (in words)” value is “decreased expression of BRD4 at all the time-points tested” and the DC50 is 184 nM. In data set [2] (setting [6]), this compound returned a solubility (thermodynamic) at 2 h of 39 µM (≈ 31.2 µg/mL). The solubility (thermodynamic) at 2 h in data set [2] (setting [7]) turned out to be 15 µM (≈ 12 µg/mL).

As to `Cc1sc2c(c1C)C(c1ccc(Cl)cc1)=N[C@@H](CC(=O)N1CCN(CC(=O)NCCCCCOc3cccc4c3C(=O)N(C3CCC(=O)NC3=O)C4=O)CC1)c1nnc(C)n1-2` (stereo partly drawn) [Compound 34, 2-(4-(2-((S)-4-(4-Chlorophenyl)-2,3,9-trimethyl-6H-thieno[3,2-f][1,2,4]triazolo[4,3-a][1,4]diazepin-6-yl)acetyl)piperazin-1-yl)-N-(5-((2-(2,6-dioxopiperidin-3-yl)-1,3-dioxoisoindolin-4-yl)oxy)pentyl)acetamide], the melting point is 194.8 to 196.8 °C (dec.). Further, in data set [1] (8 h, MDA-MB-231 cells), the “dose-response of BRD4 degradation (in words)” value is reported as “showed the well-known “hook effect””. The “effect of cotreatment with proteasome inhibitor bortezomib on BRD4 degradation” value in data set [1] (8 h) is given as “abolish BRD4 degradation”. In addition, in data set [1] (MDA-MB-231 cells), the “BRD4 degradation in time-course experiments (in words)” value is given as “decreased expression of BRD4 at all the time-points tested” and the DC50 worked out at 60 nM. Besides, in data set [1] (dose-response 100 nM to 10 μM, 8 h, MDA-MB-231 cells), the “concentration of maximal BRD4 degradation” value is 300 nM. The same compound returned a solubility (thermodynamic) at 2 h in data set [2] (setting [6]) of 5070 µM (≈ 4410 µg/mL). The same compound registered a thermodynamic solubility at 2 h in data set [2] (setting [7]) of 11 µM (≈ 9.55 µg/mL).

Take `Cc1sc2c(c1C)C(c1ccc(Cl)cc1)=N[C@@H](CC(=O)OCC(=O)NCCCCOc1cccc3c1C(=O)N(C1CCC(=O)NC1=O)C3=O)c1nnc(C)n1-2` (stereo partly drawn) [Compound 37, 2-((4-((2-(2,6-Dioxopiperidin-3-yl)-1,3-dioxoisoindolin-4-yl)oxy)butyl)amino)-2-oxoethyl2-((S)-4-(4-chlorophenyl)-2,3,9-trimethyl-6H-thieno[3,2-f][1,2,4]triazolo[4,3-a][1,4]diazepin-6-yl)acetate]: the melting point was 105.2 to 107 °C (dec.). The same compound returned a thermodynamic solubility at 2 h in data set [2] (setting [6]) of 18 µM (≈ 14.2 µg/mL). The “solubility at physiological pH (in words)” value in data set [2] (pH 7.4) was “the least soluble”. In data set [2] (setting [7]), the solubility (thermodynamic) at 2 h worked out at 8 µM (≈ 6.29 µg/mL). The “metabolic stability in MLM (in words)” value in data set [3] is “highly stable in MLM”.

Take `Cc1sc2c(c1C)C(c1ccc(Cl)cc1)=N[C@@H](CC(=O)NCCCCNC(=O)COc1cccc3c1C(=O)N(C1CCC(=O)NC1=O)C3=O)c1nnc(C)n1-2` (some centres unmarked) [dBET1]: in data set [4] (pH 2.0, literature data ref 58), the “Thermodynamic aqueous solubility, HCl 0.01 N (pH = 2.0)” value was 171 ^c μM. The “Thermodynamic aqueous solubility, PBS 0.1 M (pH = 7.4)” value in data set [4] (pH 7.4, literature data ref 58) was 60 ^c μM.

On to `O=C1CCC(N2C(=O)c3ccccc3C2=O)C(=O)N1` (centres unmarked) [thalidomide], for which, in data set [5], the hydrolytic degradation entry was “about 30%”.
